# Measured values from patent US9469650B2, “Melampomagnolide B derivatives” (BOARD OF TRUSTEES OF THE UNIVERSITY OF ARKANSAS, priority 2013, dated 2016).
# Read-outs that look alike come from different tables or passages of the source.
# Assays:
# MDA-MB-231/ATCC = test: panel of 60 human tumor cell lines, growth inhibition (Breast Cancer); settings: MDA-MB-231/ATCC
# TK-10 = test: panel of 60 human tumor cell lines, growth inhibition (Renal Cancer); settings: TK-10
# A549/ATCC = test: panel of 60 human tumor cell lines, growth inhibition (Non-Small Cell Lung Cancer); settings: A549/ATCC
# HS 578T = test: panel of 60 human tumor cell lines, growth inhibition (Breast Cancer); settings: for Percent Growth: HS 57BT
# MDA-MB-435 = test: panel of 60 human tumor cell lines, growth inhibition (Melanoma); settings: MDA-MB-435
# SF-268 = test: panel of 60 human tumor cell lines, growth inhibition (CNS Cancer); settings: SF-268
# SK-MEL-2 = test: panel of 60 human tumor cell lines, growth inhibition (Melanoma); settings: SK-MEL-2
# SN12C = test: panel of 60 human tumor cell lines, growth inhibition (Renal Cancer)
# HCT-15 = test: panel of 60 human tumor cell lines, growth inhibition (Colon Cancer); settings: HCT-15
structure (smiles),measurement,setting,value
C=C1C(=O)O[C@H]2[C@H]1CC/C(COC(=O)N1CCN(C)CC1)=C\CC[C@@]1(C)O[C@@H]21 [JVM 2-44],GI50,MDA-MB-231/ATCC,10.4 µM
same,TGI,MDA-MB-231/ATCC,2.64E−5
same,Mean Optical Densities,MDA-MB-231/ATCC; Log10 Concentration −4.0,0.200
same,Percent Growth,MDA-MB-231/ATCC; Log10 Concentration −4.0,−72%
same,Mean Optical Densities,MDA-MB-231/ATCC; Log10 Concentration −5.0,1.153
same,Percent Growth,MDA-MB-231/ATCC; Log10 Concentration −5.0,52%
same,Mean Optical Densities,MDA-MB-231/ATCC; Log10 Concentration −6.0,1.525
same,Percent Growth,MDA-MB-231/ATCC; Log10 Concentration −6.0,95%
same,Mean Optical Densities,MDA-MB-231/ATCC; Log10 Concentration −7.0,1.568
same,Percent Growth,MDA-MB-231/ATCC; Log10 Concentration −7.0,106%
same,Mean Optical Densities,MDA-MB-231/ATCC; Log10 Concentration −8.0,1.619
same,Percent Growth,MDA-MB-231/ATCC; Log10 Concentration −8.0,106%
same,GI50,TK-10,3.91 µM
same,TGI,TK-10,1.53E−5
same,Mean Optical Densities,TK-10; Log10 Concentration −4.0,0.069
same,Percent Growth,TK-10; Log10 Concentration −4.0,−94%
same,Mean Optical Densities,TK-10; Log10 Concentration −5.0,1.338
same,Percent Growth,TK-10; Log10 Concentration −5.0,21%
same,Mean Optical Densities,TK-10; Log10 Concentration −6.0,2.166
same,Percent Growth,TK-10; Log10 Concentration −6.0,92%
same,Mean Optical Densities,TK-10; Log10 Concentration −7.0,2.198
same,Percent Growth,TK-10; Log10 Concentration −7.0,95%
same,Mean Optical Densities,TK-10; Log10 Concentration −8.0,2.185
same,Percent Growth,TK-10; Log10 Concentration −8.0,94%
same,GI50,A549/ATCC,20.5 µM
same,TGI,A549/ATCC,6.23E−5
same,Mean Optical Densities,A549/ATCC; Log10 Concentration −4.0,0.267
same,Percent Growth,A549/ATCC; Log10 Concentration −4.0,−21%
same,Mean Optical Densities,A549/ATCC; Log10 Concentration −5.0,1.536
same,Percent Growth,A549/ATCC; Log10 Concentration −5.0,82%
same,Mean Optical Densities,A549/ATCC; Log10 Concentration −6.0,1.748
same,Percent Growth,A549/ATCC; Log10 Concentration −6.0,97%
same,Mean Optical Densities,A549/ATCC; Log10 Concentration −7.0,1.802
same,Percent Growth,A549/ATCC; Log10 Concentration −7.0,101%
same,Mean Optical Densities,A549/ATCC; Log10 Concentration −8.0,1.778
same,Percent Growth,A549/ATCC; Log10 Concentration −8.0,99%
same,GI50,HS 578T,16.7 µM
same,TGI,HS 578T,>1.00E−4
same,Percent Growth,HS 578T; Log10 Concentration −4.0,5%
same,Percent Growth,HS 578T; Log10 Concentration −5.0,63%
same,Percent Growth,HS 578T; Log10 Concentration −6.0,90%
same,Percent Growth,HS 578T; Log10 Concentration −7.0,86%
same,Percent Growth,HS 578T; Log10 Concentration −8.0,90%
same,Mean Optical Densities,HS 578T; Log10 Concentration −4.0,1.235
same,Mean Optical Densities,HS 578T; Log10 Concentration −5.0,1.827
same,Mean Optical Densities,HS 578T; Log10 Concentration −6.0,2.096
same,Mean Optical Densities,HS 578T; Log10 Concentration −7.0,2.057
same,Mean Optical Densities,HS 578T; Log10 Concentration −8.0,2.099
same,GI50,MDA-MB-435,7.64 µM
same,TGI,MDA-MB-435,2.27E−5
same,Mean Optical Densities,MDA-MB-435; Log10 Concentration −4.0,0.109
same,Percent Growth,MDA-MB-435; Log10 Concentration −4.0,−80%
same,Mean Optical Densities,MDA-MB-435; Log10 Concentration −5.0,1.343
same,Percent Growth,MDA-MB-435; Log10 Concentration −5.0,44%
same,Mean Optical Densities,MDA-MB-435; Log10 Concentration −6.0,2.253
same,Percent Growth,MDA-MB-435; Log10 Concentration −6.0,94%
same,Mean Optical Densities,MDA-MB-435; Log10 Concentration −7.0,2.240
same,Percent Growth,MDA-MB-435; Log10 Concentration −7.0,93%
same,Mean Optical Densities,MDA-MB-435; Log10 Concentration −8.0,2.396
same,Percent Growth,MDA-MB-435; Log10 Concentration −8.0,102%
same,GI50,SF-268,13.5 µM
same,TGI,SF-268,3.19E−5
same,Mean Optical Densities,SF-268; Log10 Concentration −4.0,0.188
same,Percent Growth,SF-268; Log10 Concentration −4.0,−66%
same,Mean Optical Densities,SF-268; Log10 Concentration −5.0,1.432
same,Percent Growth,SF-268; Log10 Concentration −5.0,67%
same,Mean Optical Densities,SF-268; Log10 Concentration −6.0,1.625
same,Percent Growth,SF-268; Log10 Concentration −6.0,97%
same,Mean Optical Densities,SF-268; Log10 Concentration −7.0,1.839
same,Percent Growth,SF-268; Log10 Concentration −7.0,9B
same,Mean Optical Densities,SF-268; Log10 Concentration −8.0,1.843
same,Percent Growth,SF-268; Log10 Concentration −8.0,99%
same,GI50,SK-MEL-2,17.2 µM
same,TGI,SK-MEL-2,3.60E−5
same,Mean Optical Densities,SK-MEL-2; Log10 Concentration −4.0,0.382
same,Percent Growth,SK-MEL-2; Log10 Concentration −4.0,−69%
same,Mean Optical Densities,SK-MEL-2; Log10 Concentration −5.0,1.984
same,Percent Growth,SK-MEL-2; Log10 Concentration −5.0,87%
same,Mean Optical Densities,SK-MEL-2; Log10 Concentration −6.0,2.148
same,Percent Growth,SK-MEL-2; Log10 Concentration −6.0,106%
same,Mean Optical Densities,SK-MEL-2; Log10 Concentration −7.0,2.037
same,Percent Growth,SK-MEL-2; Log10 Concentration −7.0,93%
same,Mean Optical Densities,SK-MEL-2; Log10 Concentration −8.0,2.082
same,Percent Growth,SK-MEL-2; Log10 Concentration −8.0,98%
same,GI50,HL-60(TB),2.53 µM
same,TGI,HL-60(TB),9.30E−6
same,Mean Optical Densities,HL-60(TB); Log10 Concentration −4.0,0.925
same,Percent Growth,HL-60(TB); Log10 Concentration −4.0,−37%
same,Mean Optical Densities,HL-60(TB); Log10 Concentration −5.0,1.432
same,Percent Growth,HL-60(TB); Log10 Concentration −5.0,−3%
same,Mean Optical Densities,HL-60(TB); Log10 Concentration −6.0,2.594
same,Mean Optical Densities,HL-60(TB); Log10 Concentration −7.0,2.607
same,Percent Growth,HL-60(TB); Log10 Concentration −7.0,87%
same,Mean Optical Densities,HL-60(TB); Log10 Concentration −8.0,2.812
same,Percent Growth,HL-60(TB); Log10 Concentration −8.0,102%
same,CC50,HL-60(TB); read-out: LC50,> 100 µM
same,GI50,SN12C,4.4 µM
same,TGI,SN12C,2.80E−5
same,Mean Optical Densities,SN12C; Log10 Concentration −4.0,0.189
same,Percent Growth,SN12C; Log10 Concentration −4.0,−64%
same,Mean Optical Densities,SN12C; Log10 Concentration −5.0,0.932
same,Percent Growth,SN12C; Log10 Concentration −5.0,28%
same,Mean Optical Densities,SN12C; Log10 Concentration −6.0,1.835
same,Percent Growth,SN12C; Log10 Concentration −6.0,90%
same,Mean Optical Densities,SN12C; Log10 Concentration −7.0,1.898
same,Percent Growth,SN12C; Log10 Concentration −7.0,94%
same,Mean Optical Densities,SN12C; Log10 Concentration −8.0,1.940
same,Percent Growth,SN12C; Log10 Concentration −8.0,97%
same,GI50,HCT-15,3.01 µM
same,TGI,HCT-15,1.42E−5
same,Mean Optical Densities,HCT-15; Log10 Concentration −4.0,0.108
same,Percent Growth,HCT-15; Log10 Concentration −4.0,−71%
same,Mean Optical Densities,HCT-15; Log10 Concentration −5.0,0.643
